Experiments:
MCF7 [1] = test: Cell cycle arrest in human MCF7 cells as assessed as accumulation at G1 phase at 1 uM after 48 hrs by propidium iodide staining-based flow cytometric analysis relative to control; format: functional
WI-38 [2] = test: Cell cycle arrest in human WI38 cells as assessed as accumulation at S phase at 0.1 uM after 48 hrs by propidium iodide staining-based flow cytometric analysis relative to control; settings: wi-38, 48 h
SW-620 [3] = test: Cell cycle arrest in human SW620 cells as assessed as accumulation at G2/M phase at 1 uM after 24 hrs by propidium iodide staining-based flow cytometric analysis relative to control; format: functional
MCF7 [4] = test: Cell cycle arrest in human MCF7 cells as assessed as accumulation at sub-G1 phase at 0.1 uM after 48 hrs by propidium iodide staining-based flow cytometric analysis relative to control; format: functional
MIA PaCa-2 = test: (§1) Antiproliferative activity against human MIAPaCa2 cells after 72 hrs by MTT assay; format: functional, cell-based
[5] = as §1; format: functional, cell-based; settings: MIA PaCa-2, 72 h
K562 [6] = test: Cell cycle arrest in human K562 cells as assessed as accumulation at S phase at 0.5 uM after 48 hrs by propidium iodide staining-based flow cytometric analysis relative to control; format: functional
WI-38 [7] = test: Cell cycle arrest in human WI38 cells as assessed as accumulation at G2/M phase at 1 uM after 48 hrs by propidium iodide staining-based flow cytometric analysis relative to control; settings: wi-38, 48 h
SW-620 [8] = test: Cell cycle arrest in human SW620 cells as assessed as accumulation at G1 phase at 0.1 uM after 48 hrs by propidium iodide staining-based flow cytometric analysis relative to control; format: functional
WI-38 [9] = test: Cell cycle arrest in human WI38 cells as assessed as accumulation at G2/M phase at 1 uM after 24 hrs by propidium iodide staining-based flow cytometric analysis relative to control; settings: wi-38, 24 h
WI-38 [10] = test: Cell cycle arrest in human WI38 cells as assessed as accumulation at G2/M phase at 0.1 uM after 24 hrs by propidium iodide staining-based flow cytometric analysis relative to control; settings: wi-38, 24 h
K562 [11] = test: Cell cycle arrest in human K562 cells as assessed as accumulation at sub-G1 phase at 1 uM after 48 hrs by propidium iodide staining-based flow cytometric analysis relative to control; format: functional
K562 [12] = test: Cell cycle arrest in human K562 cells as assessed as accumulation at G2/M phase at 1 uM after 24 hrs by propidium iodide staining-based flow cytometric analysis relative to control; format: functional
SW-620 [13] = test: Cell cycle arrest in human SW620 cells as assessed as accumulation at G1 phase at 1 uM after 48 hrs by propidium iodide staining-based flow cytometric analysis relative to control; format: functional
SW-620 [14] = test: Cell cycle arrest in human SW620 cells as assessed as accumulation at S phase at 0.1 uM after 24 hrs by propidium iodide staining-based flow cytometric analysis relative to control; format: functional
MCF7 [15] = test: Cell cycle arrest in human MCF7 cells as assessed as accumulation at S phase at 1 uM after 48 hrs by propidium iodide staining-based flow cytometric analysis relative to control; format: functional
K562 [16] = test: Cell cycle arrest in human K562 cells as assessed as accumulation at S phase at 0.1 uM after 48 hrs by propidium iodide staining-based flow cytometric analysis relative to control; format: functional
WI-38 [17] = test: Cell cycle arrest in human WI38 cells as assessed as accumulation at sub-G1 phase at 0.1 uM after 24 hrs by propidium iodide staining-based flow cytometric analysis relative to control; settings: wi-38, 24 h
K562 [18] = test: Cell cycle arrest in human K562 cells as assessed as accumulation at S phase at 1 uM after 48 hrs by propidium iodide staining-based flow cytometric analysis relative to control; format: functional
SW-620 [19] = test: Cell cycle arrest in human SW620 cells as assessed as accumulation at S phase at 1 uM after 48 hrs by propidium iodide staining-based flow cytometric analysis relative to control; format: functional
MCF7 [20] = test: Cell cycle arrest in human MCF7 cells as assessed as accumulation at S phase at 0.1 uM after 48 hrs by propidium iodide staining-based flow cytometric analysis relative to control; format: functional
WI-38 [21] = test: Cell cycle arrest in human WI38 cells as assessed as accumulation at S phase at 0.1 uM after 24 hrs by propidium iodide staining-based flow cytometric analysis relative to control; settings: wi-38, 24 h
SW-620 [22] = test: Cell cycle arrest in human SW620 cells as assessed as accumulation at G1 phase at 0.1 uM after 24 hrs by propidium iodide staining-based flow cytometric analysis relative to control; format: functional
BJ = test: Antiadhesive activity against human BJ cells at 5 uM after 2 to 24 hrs by crystal-violet staining-based microscopic analysis; format: ADME, cell-based
WI-38 [23] = test: Cell cycle arrest in human WI38 cells as assessed as accumulation at G1 phase at 1 uM after 24 hrs by propidium iodide staining-based flow cytometric analysis relative to control; settings: wi-38, 24 h
MCF7 [24] = test: Antiproliferative activity against human MCF7 cells after 72 hrs by MTT assay; format: functional, cell-based
WI-38 [25] = test: Cell cycle arrest in human WI38 cells as assessed as accumulation at S phase at 1 uM after 24 hrs by propidium iodide staining-based flow cytometric analysis relative to control; settings: wi-38, 24 h
MCF7 [26] = test: Cell cycle arrest in human MCF7 cells as assessed as accumulation at sub-G1 phase at 0.1 uM after 24 hrs by propidium iodide staining-based flow cytometric analysis relative to control; format: functional
K562 [27] = test: Antiproliferative activity against apoptosis-resistant, Philadelphia chromosome-positive human K562 cells after 72 hrs by PrestoBlue colorimetric assay; format: functional, cell-based; settings: K562, 72 h
MCF7 [28] = test: Cell cycle arrest in human MCF7 cells as assessed as accumulation at G1 phase at 0.1 uM after 24 hrs by propidium iodide staining-based flow cytometric analysis relative to control; format: functional
SW-620 [29] = test: Cell cycle arrest in human SW620 cells as assessed as accumulation at sub-G1 phase at 0.1 uM after 48 hrs by propidium iodide staining-based flow cytometric analysis relative to control; format: functional
SW-620 [30] = test: Cell cycle arrest in human SW620 cells as assessed as accumulation at sub-G1 phase at 1 uM after 24 hrs by propidium iodide staining-based flow cytometric analysis relative to control; format: functional
SW-620 [31] = test: Cell cycle arrest in human SW620 cells as assessed as accumulation at S phase at 1 uM after 24 hrs by propidium iodide staining-based flow cytometric analysis relative to control; format: functional
K562 [32] = test: Cell cycle arrest in human K562 cells as assessed as accumulation at G1 phase at 1 uM after 24 hrs by propidium iodide staining-based flow cytometric analysis relative to control; format: functional
K562 [33] = test: Cell cycle arrest in human K562 cells as assessed as accumulation at G2/M phase at 0.5 uM after 24 hrs by propidium iodide staining-based flow cytometric analysis relative to control; format: functional
MCF7 [34] = test: Cell cycle arrest in human MCF7 cells as assessed as accumulation at S phase at 0.1 uM after 24 hrs by propidium iodide staining-based flow cytometric analysis relative to control; format: functional
SW-620 [35] = test: Cell cycle arrest in human SW620 cells as assessed as accumulation at G2/M phase at 0.1 uM after 48 hrs by propidium iodide staining-based flow cytometric analysis relative to control; format: functional
K562 [36] = test: Cell cycle arrest in human K562 cells as assessed as accumulation at G2/M phase at 1 uM after 48 hrs by propidium iodide staining-based flow cytometric analysis relative to control; format: functional

Activity (WI-38 [2]): 6.8%
Activity (WI-38 [7]): 3.5%
Activity (WI-38 [9]): 5.1%
Activity (WI-38 [10]): 6.9%
Activity (WI-38 [17]): 21.9%
Activity (WI-38 [21]): 8.9%
Activity (WI-38 [23]): 70.1%
IC50 (MCF7 [24]; MCF7, 72 h): 400 nM
Activity (WI-38 [25]): 2.4%
IC50 (K562 [27]): 600 nM
Structure (SMILES): COCn1c(CC(COCc2ccccc2)COCc2ccccc2)c(C)c(=O)n(COC)c1=O
Activity (MCF7 [1]): 11.5%
Activity (SW-620 [3]): 20.1%
Activity (MCF7 [4]): 50.5%
Activity (MIA PaCa-2): Dose-dependent effect
IC50 [5]: 500 nM
Activity (K562 [6]): 18.2%
Activity (SW-620 [8]): 49.7%
Activity (K562 [11]): 4.2%
Activity (K562 [12]): 18.4%
Activity (SW-620 [13]): 53.1%
Activity (SW-620 [14]): 19.6%
Activity (MCF7 [15]): 4.9%
Activity (K562 [16]): 24.1%
Activity (K562 [18]): 25.9%
Activity (SW-620 [19]): 22%
Activity (MCF7 [20]): 11.9%
Activity (SW-620 [22]): 51.5%
Activity (BJ): Toxic
Activity (MCF7 [24]): Dose-dependent effect
Activity (MCF7 [26]): 55.5%
Activity (MCF7 [28]): 25.5%
Activity (SW-620 [29]): 6.8%
Activity (SW-620 [30]): 5.2%
Activity (SW-620 [31]): 16.1%
Activity (K562 [32]): 53%
Activity (K562 [33]): 4.8%
Activity (MCF7 [34]): 9.7%
Activity (SW-620 [35]): 15.5%
Activity (K562 [36]): 17.4%
